Test results: patent publication US20090227492A1, “TREATMENT OF NEUROLOGICAL CONDITIONS USING COMPLEMENT C5a RECEPTOR MODULATORS” (priority 2004, published 2009)
Bridge positions count the residues as written; N and C are the ends. Square brackets hold non-standard residues; d marks the D form. Peptide text beside a SMILES is read from it. * marks the point of attachment. Hydrocinnamoyl = O=C(CCc1ccccc1)*; Cit = NC(=O)NCCC[C@H](N)C(=O)O; dCha = N[C@H](CC1CCCCC1)C(=O)O; Orn = NCCC[C@H](N)C(=O)O

Experiments:
[1] = test system: Transgenic Sprague-Dawley rats carrying mutant SOD-1 gene; test: transgenic SOD-1 rat model of ALS; type: in vivo; conditions: approximately 1 mg/kg/day in drinking water from 70 days of age; for average age of onset of loss of motor function: male rats, untreated 116+/−4 days; for percent survival over time (mortality) / percentage of rats showing onset of motor symptoms over time: vs untreated
Method: Treatment commenced when the rats were 70 days of age. Drugs were dosed in the drinking water at approximately 1 mg/kg/day. A group of 3 wild type (WT) Sprague-Dawley rats (G63) were included as sham control animals. Rats were then monitored daily for signs of motor disturbance, using the following scale:
Body weights were also recorded daily. Rats were euthanised when they reached a score of 4 for the righting response, or had lost >20% of their peak body weight.

3-NP rat model [2] = test: 3-NP rat model (3-nitropropionic acid neurotoxicity); type: in vivo
Method: Unless otherwise stated, the protocol for induction of 3-NP neurotoxicity employed in the present study was similar to that of Blum et al (2001; 2002), except that we used 42 mg/kg/day for 7 days rather than 56 mg/kg for 5 days. Briefly, a 90 mg/mL solution of 3-NP in PBS (0.1 M, pH 7.4) was prepared and adjusted to pH 7.4 with 5M NaOH. Alzet osmotic mini-pumps (model 2ML1, delivering 10 μL/hr for 7 days) filled with this solution were implanted into 12 week old male Lewis rats, so that each rat received exactly 42 mg/kg/day.
Rats were housed in individual cages. The rats were anaesthetised with ketamine, xylazine and zolazapam. A pump was inserted s.c. into the back of each rat via an incision between the scapulae, and the incision closed with wound clips. Following recovery from anaesthesia, food intake, body weight and neurological were evaluated daily over the next 7 days. Neurological and behavioural evaluation according to standard criteria was also performed at several points by an observer blinded to the identity of the groups.
After completion of the study, rats were deeply anaesthetised with xylazine and ketamine. The rats were then perfused with approximately 100 mL of sodium nitrite solution to remove blood, followed by approximately 400 mL of formaldehyde solution to fix the brains in situ. Brains were then carefully removed and stored in formaldehyde solution for at least 3 days, before processing for histology. Slides were stained with cresyl violet and examined by light microscopy. […]
PMX53 (10 mg/kg/day) and PMX205 (10 mg/kg/day) were administered daily by gavage and ibuprofen (30 mg/kg/day) administered in the drinking water, beginning 2 days prior to 3-NP administration. Infliximab was administered as a single 5 mg/kg i.v. infusion on Day 0. […]

3-NP rat model [3] = test: histological and histochemical examination of rat brain sections from the 3-NP model (naphthyl esterase, TUNEL); type: in vivo; conditions: brain sections of rats of Example 2
Source text: Paraffin sections of brain tissue from the rats used in Example 2 were stained with hematoxylin and eosin and examined under the microscope. […] The TUNEL (TdT-mediated dUTP Nick-End Labeling) assay (Gavrieli, Y., et al. (1992) J. Cell. Biol. 119, 493.) measures nuclear DNA fragmentation, which is an important biochemical hallmark of apoptosis. […] Brain sections were therefore also stained for TUNEL analysis using a standard kit (ApopTag Plus/TUNEL method; Chemicon). Striatal sections of brains containing the area of interest were fixed to a slide and deparaffinized. Slides were then pretreated with Proteinase K (20 μg/mL), and endogenous peroxidases quenched with 3% hydrogen peroxide. Equilibration buffer was then added, followed by TdT enzyme for 1 hour. Samples were then washed, and anti-digoxigenin conjugate added for 30 min. Peroxidase substrate (diaminobenzidine) was then added, and colour allowed to develop over 6 min. Samples were then counterstained with 0.5% methyl green and mounted with Permount. Sections were washed in PBS (0.1 M, ph 7.4) in between each step.

[4] = levels of PMX compounds in brain and plasma following i.v. injection (blood-brain barrier); conditions: female Wistar rats; 3 mg/kg i.v.; 15 min; brain perfused with saline
Method: Rats were then left for 15 min, at which point a sample of blood was taken from the tail for plasma collection, and rats were then perfused via cardiac puncture with 150 mL of saline to remove blood from the brain. The brain was then dissected out. Plasma and brain samples of were prepared for pharmacokinetic analysis, and the levels of PMX compounds determined in each sample.

[5] = Example 2, PMX53, PMX205 10 mg/kg/day gavage, ibuprofen 30 mg/kg/day drinking water, infliximab 5 mg/kg i.v. Day 0, 7 days

Compound	average age of onset of loss of motor function [1]	percent survival over time (mortality) [1]	percentage of rats showing onset of motor symptoms over time [1]	neurological/behavioural score (3-NP rat model [2]; [5])	degree of apoptosis (TUNEL) (3-NP rat model [3])	neutrophil infiltration (naphthyl esterase stain) (3-NP rat model [3])	further results
CC(=O)N[C@@H](Cc1ccccc1)C(=O)N[C@H]1CCCNC(=O)[C@H](CCCNC(=N)N)NC(=O)[C@H](Cc2c[nH]c3ccccc23)NC(=O)[C@@H](CC2CCCCC2)NC(=O)[C@@H]2CCCN2C1=O [PMX53, AcPhe[Orn-Pro-D-Cyclohexylalanine-Trp-Arg]]	124 ± 10 days	possibly a small improvement	possibly a small improvement	significant protection	reduced the degree of apoptosis	completely prevented neutrophil infiltration	loss of body weight (3-NP rat model [2]; Example 1 pilot, 2 mg/kg daily in drinking water plus 1 mg/kg s.c. Days 0, 3, 6, 8, Days 5-7, P<0.05, n=5, vs untreated): significantly less loss of body weight; neurological/behavioural score (3-NP rat model [2]; Example 1 pilot, 2 mg/kg daily in drinking water plus 1 mg/kg s.c., Days 4-9, P<0.05, n=5, vs untreated): significantly decreased neurological/behavioural scores; food intake (3-NP rat model [2]; Example 1 pilot, 2 mg/kg daily in drinking water plus 1 mg/kg s.c., Days 5-7, P<0.05, n=5, vs untreated): significantly greater food intake; necrotic cells in the striatal regions (cresyl violet histology) (3-NP rat model [2]; Example 1 pilot, vs controls): fewer necrotic cells; necrotic cells in the striatal regions (cresyl violet histology) (3-NP rat model [2]; Example 2, 10 mg/kg/day gavage, day 7): fewer necrotic cells
NC(=O)NCCC[C@@H]1NC(=O)[C@H](Cc2c[nH]c3ccccc23)NC(=O)[C@@H](CC2CCCCC2)NC(=O)[C@@H]2CCCN2C(=O)[C@@H](NC(=O)CCc2ccccc2)CCCNC1=O [PMX200, HC-[OPdChaWCit]] (Hydrocinnamoyl-[Orn]P[dCha]W[Cit]; lactam 1-C)							levels in the brain as a percentage of the levels in the blood (absorption into the brain) [4]: lower degree of absorption
N=C(N)NCCC[C@@H]1NC(=O)[C@H](Cc2c[nH]c3ccccc23)NC(=O)[C@@H](CC2CCCCC2)NC(=O)[C@@H]2CCCN2C(=O)[C@@H](NC(=O)CCc2ccccc2)CCCNC1=O [PMX205, Hydrocinnamate-[OpdChaWR]] (Hydrocinnamoyl-[Orn]P[dCha]WR; lactam 1-C)	138 ± 7 days	clear delay of mortality	clear delay of motor onset	significant protection	reduced the degree of apoptosis	completely prevented neutrophil infiltration	period between the first loss of body weight and the first observable loss of motor function [1]: particularly striking
CC(C)Cc1ccc(C(C)C(=O)O)cc1 (stereo not drawn) [ibuprofen, reference compound]				an effect only up to Day 5			
infliximab [reference compound]				little if any effect			
